Measured values taken from patent publication US20250230193A1, “CYCLIC COMPOUND HAVING SELECTIVE KRAS INHIBITORY EFFECT ON HRAS AND NRAS” (CHUGAI SEIYAKU KABUSHIKI KAISHA, priority 2022, published 2025).

Columns and labels:
[1] = target: GDP-bound NRAS wild-type protein (Homo sapiens, UniProt P01111); assay: Binding to NRAS by surface plasmon resonance (SPR), Single Cycle Kinetics; details: KD ratio NRAS/KRAS, class symbols
[2] = target: GDP-bound HRAS wild-type protein (Homo sapiens, UniProt P01112); assay: Binding to HRAS by surface plasmon resonance (SPR), Single Cycle Kinetics; details: KD ratio HRAS/KRAS, class symbols
Sequence of GDP-bound HRAS wild-type protein (P01112 whole entry): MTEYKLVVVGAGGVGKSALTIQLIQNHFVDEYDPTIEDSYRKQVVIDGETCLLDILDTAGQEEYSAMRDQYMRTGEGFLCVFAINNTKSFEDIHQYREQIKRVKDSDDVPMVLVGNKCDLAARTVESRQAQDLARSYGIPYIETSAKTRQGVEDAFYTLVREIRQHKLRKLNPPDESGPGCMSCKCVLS

Sequence of GDP-bound NRAS wild-type protein (P01111 whole entry): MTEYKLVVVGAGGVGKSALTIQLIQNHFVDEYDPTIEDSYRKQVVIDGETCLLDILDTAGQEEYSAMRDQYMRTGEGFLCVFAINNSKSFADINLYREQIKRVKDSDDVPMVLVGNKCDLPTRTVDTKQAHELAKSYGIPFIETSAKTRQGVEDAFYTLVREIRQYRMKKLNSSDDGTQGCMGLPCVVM

| Structure (SMILES) | NRAS/KRAS (ratio of KD value with respect to GDP-bound NRAS wild-type protein to KD value with respect to KRAS) [1] | HRAS/KRAS (ratio of KD value with respect to GDP-bound HRAS wild-type protein to KD value with respect to KRAS) [2] |
| --- | --- | --- |
| CC[C@H](C)[C@@H]1NC(=O)[C@@H]2CCC/C=C/c3ccc(cc3)C[C@@H](C(=O)N(C)CC(=O)N[C@@H](CCc3ccc(Cl)c(Cl)c3)C(=O)N3CCC[C@H]3C(=O)NC3(CC(C)(C)C3)C(=O)N(C)[C@@H](C3CCCC3)C(=O)N(C)[C@H](C(=O)N3CCCC3)CC(=O)N2C)N2CC/C=C\C[C@@H](C2=O)N(C)C(=O)CN(C)C1=O [PP2602] | A (a compound having 10 or more and less than 20 is denoted as A) | A (a compound having 10 or more and less than 20 is denoted as A) |
| CCC(CC)[C@H]1C(=O)N(C)[C@H](C(=O)N(C)C)CC(=O)N(C)[C@H]2CCC/C=C/c3ccc(cc3)C[C@@H](C(=O)N(C)CC(=O)N[C@@H](CCc3ccc(Cl)c(Cl)c3)C(=O)N3CCC[C@H]3C(=O)NC3(CC(C)(C)C3)C(=O)N1C)N1CC/C=C\C[C@@H](C1=O)N(C)C(=O)CN(C)C(=O)[C@H]([C@@H](C)CC)NC2=O [PP2603] | AA (a compound having 20 or more is denoted as AA) | A (a compound having 10 or more and less than 20 is denoted as A) |
| CCC(CC)[C@H]1C(=O)N(C)[C@H](C(=O)N2CCCC2)CC(=O)N(C)[C@H]2CCC/C=C/c3ccc(cc3)C[C@@H](C(=O)N(C)CC(=O)N[C@@H](CCc3ccc(Cl)c(Cl)c3)C(=O)N3CCC[C@H]3C(=O)NC3(CC(C)(C)C3)C(=O)N1C)N1CC/C=C\C[C@@H](C1=O)N(C)C(=O)CN(C)C(=O)[C@H]([C@@H](C)CC)NC2=O [PP2604] | AA (a compound having 20 or more is denoted as AA) | A (a compound having 10 or more and less than 20 is denoted as A) |
| CCO[C@@H]1C[C@H]2C(=O)NC3(CCC3)C(=O)N(C)[C@@H](C(CC)CC)C(=O)N(C)[C@H](C(=O)N(C)C)CC(=O)N(C)[C@H]3CCCC/C=C/c4ccc(cc4)C[C@@H](C(=O)N(C)CC(=O)N[C@@H](CCc4ccc(Cl)c(Cl)c4)C(=O)N2C1)N1CC/C=C\C[C@@H](C1=O)N(C)C(=O)CN(C1CC1)C(=O)[C@H]([C@@H](C)CC)NC3=O [PP2605] | AA (a compound having 20 or more is denoted as AA) | A (a compound having 10 or more and less than 20 is denoted as A) |
| CCO[C@@H]1C[C@H]2C(=O)NC3(CC(C)(C)C3)C(=O)N(C)[C@@H](C(CC)CC)C(=O)N(C)[C@H](C(=O)N3CCCCC3)CC(=O)N(C)[C@@H](COC)C(=O)N[C@@H]([C@@H](C)CC)C(=O)N(C)CC(=O)N(C)[C@H]3C/C=C\CCN(C3=O)[C@@H](Cc3ccc(C(F)(F)F)cc3)C(=O)N(C)CC(=O)N[C@@H](CCc3cc(F)c(C(F)(F)F)c(F)c3)C(=O)N2C1 [PP2606] | AA (a compound having 20 or more is denoted as AA) | AA (a compound having 20 or more is denoted as AA) |
| CCC(CC)[C@H]1C(=O)N(C)[C@H](C(=O)N2CCCCC2)CC(=O)N(C)[C@@H](COC)C(=O)N[C@@H]([C@@H](C)CC)C(=O)N(C)CC(=O)N(C)[C@H]2C/C=C\CCN(C2=O)[C@@H](Cc2ccc(C(F)(F)F)cc2)C(=O)N(C)CC(=O)N[C@@H](CCc2cc(F)c(C(F)(F)F)c(F)c2)C(=O)N2C[C@H](OC(C)C)C[C@H]2C(=O)NC2(CC(C)(C)C2)C(=O)N1C [PP2608] | AA (a compound having 20 or more is denoted as AA) | A (a compound having 10 or more and less than 20 is denoted as A) |
| CCO[C@@H]1C[C@H]2C(=O)NC3(CC(C)(C)C3)C(=O)N(C)[C@@H](C(CC)CC)C(=O)N(C)[C@H](C(=O)N3CCCCC3)CC(=O)N(C)[C@@H](COC)C(=O)N[C@@H]([C@@H](C)CC)C(=O)N(C)CC(=O)N(C)[C@H]3C/C=C\CCN(C3=O)[C@@H](Cc3ccc(C(F)(F)F)cc3)C(=O)N(C)CC(=O)N[C@@H](CCc3ccc(Cl)c(Cl)c3)C(=O)N2C1 [PP2610] | AA (a compound having 20 or more is denoted as AA) | A (a compound having 10 or more and less than 20 is denoted as A) |
| CCC(CC)[C@H]1C(=O)N(C)[C@H](C(=O)N2CCCCC2)CC(=O)N(C)[C@@H](COC)C(=O)N[C@@H]([C@@H](C)CC)C(=O)N(C)CC(=O)N(C)[C@H]2C/C=C\CCN(C2=O)[C@@H](Cc2ccc(C(F)(F)F)cc2)C(=O)N(C)CC(=O)N[C@@H](CCc2ccc(Cl)c(Cl)c2)C(=O)N2C[C@H](OC(C)C)C[C@H]2C(=O)NC2(CC(C)(C)C2)C(=O)N1C [PP2612] | AA (a compound having 20 or more is denoted as AA) | A (a compound having 10 or more and less than 20 is denoted as A) |
| CCC[C@H]1C(=O)N[C@@H]([C@@H](C)CC)C(=O)N(C2CC2)CC(=O)N(C)[C@H]2C/C=C\CCN(C2=O)[C@@H](Cc2ccc(C)cc2)C(=O)N(C)CC(=O)N[C@@H](CCc2cc(F)c(C(F)(F)F)c(F)c2)C(=O)N2C[C@H](OC3CCC3)C[C@H]2C(=O)NC2(CC(C)(C)C2)C(=O)N(C)[C@@H](C2CCCC2)C(=O)N(C)[C@H](C(=O)N(C)C)CC(=O)N1C [PP2614] | A (a compound having 10 or more and less than 20 is denoted as A) | A (a compound having 10 or more and less than 20 is denoted as A) |
| CCC(CC)[C@H]1C(=O)N(C)[C@H](C(=O)N(C)C)CC(=O)N(C)[C@@H](COC)C(=O)N[C@@H]([C@@H](C)CC)C(=O)N(C2CC2)CC(=O)N(C)[C@H]2C/C=C\CCN(C2=O)[C@@H](CC2CCC(F)(F)CC2)C(=O)N(C)CC(=O)N[C@@H](CCc2cc(F)c(C(F)(F)F)c(F)c2)C(=O)N2C[C@H](OC3CCC3)C[C@H]2C(=O)NC2(CC(C)(C)C2)C(=O)N1C [PP2615] | A (a compound having 10 or more and less than 20 is denoted as A) | A (a compound having 10 or more and less than 20 is denoted as A) |
| CCC[C@H]1C(=O)N[C@@H]([C@@H](C)CC)C(=O)N(C2CC2)CC(=O)N(C)[C@H]2C/C=C\CCN(C2=O)[C@@H](Cc2ccc(C)cc2)C(=O)N(C)CC(=O)N[C@@H](CCc2ccc(Cl)c(Cl)c2)C(=O)N2C[C@H](OC3CCC3)C[C@H]2C(=O)NC2(CC(C)(C)C2)C(=O)N(C)[C@@H](C2CCCC2)C(=O)N(C)[C@H](C(=O)N(C)C)CC(=O)N1C [PP2616] | A (a compound having 10 or more and less than 20 is denoted as A) | A (a compound having 10 or more and less than 20 is denoted as A) |
| CC[C@H](C)[C@@H]1NC(=O)[C@H](COC)N(C)C(=O)C[C@@H](C(=O)N(C)C)N(C)C(=O)[C@H](C2CCCC2)N(C)C(=O)C2(CC(C)(C)C2)NC(=O)[C@@H]2C[C@@H](OC3CCC3)CN2C(=O)[C@H](CCc2cc(F)c(C(F)(F)F)c(F)c2)NC(=O)CN(C)C(=O)[C@H](CC2CCCCC2)N2CC/C=C\C[C@@H](C2=O)N(C)C(=O)CN(C2CC2)C1=O [PP2618] | A (a compound having 10 or more and less than 20 is denoted as A) | A (a compound having 10 or more and less than 20 is denoted as A) |
| CCC(CC)[C@H]1C(=O)N(C)[C@H](C(=O)N(C)C)CC(=O)N(C)[C@@H](COC)C(=O)N[C@@H]([C@@H](C)CC)C(=O)N(C2CC2)CC(=O)N(C)[C@H]2C/C=C\CCN(C2=O)[C@@H](Cc2ccc(C)cc2)C(=O)N(C)CC(=O)N[C@@H](CCc2cc(F)c(C(F)(F)F)c(F)c2)C(=O)N2C[C@H](OC3CCCC3)C[C@H]2C(=O)NC2(CC(C)(C)C2)C(=O)N1C [PP2619] | AA (a compound having 20 or more is denoted as AA) | A (a compound having 10 or more and less than 20 is denoted as A) |
| CC[C@H](C)[C@@H]1NC(=O)[C@H](COC)N(C)C(=O)C[C@@H](C(=O)N(C)C)N(C)C(=O)[C@H](C2CCCC2)N(C)C(=O)C2(CC(C)(C)C2)NC(=O)[C@@H]2C[C@@H](OC3CCC3)CN2C(=O)[C@H](CCc2cc(F)c(C(F)(F)F)c(F)c2)NC(=O)CN(C)C(=O)[C@H](CC2CCC(F)(F)CC2)N2CC/C=C\C[C@@H](C2=O)N(C)C(=O)CN(C2CC2)C1=O [PP2622] | A (a compound having 10 or more and less than 20 is denoted as A) | B (a compound having 3 or more and less than 10 is denoted as B) |
| CC[C@H](C)[C@@H]1NC(=O)[C@H](COC)N(C)C(=O)C[C@@H](C(=O)N(C)C)N(C)C(=O)[C@H](C2CCCC2)N(C)C(=O)C2(CC(C)(C)C2)NC(=O)[C@@H]2C[C@@H](OC3CCC3)CN2C(=O)[C@H](CCc2ccc(Cl)c(Cl)c2)NC(=O)CN(C)C(=O)[C@H](CC2CCC(F)(F)CC2)N2CC/C=C\C[C@@H](C2=O)N(C)C(=O)CN(C2CC2)C1=O [PP2624] | A (a compound having 10 or more and less than 20 is denoted as A) | A (a compound having 10 or more and less than 20 is denoted as A) |
| CC[C@H](C)[C@@H]1NC(=O)[C@H](COC)N(C)C(=O)C[C@@H](C(=O)N(C)C)N(C)C(=O)[C@H](C2CCCC2)N(C)C(=O)C2(CC(C)(C)C2)NC(=O)[C@@H]2C[C@@H](OC3CCCC3)CN2C(=O)[C@H](CCc2cc(F)c(C(F)(F)F)c(F)c2)NC(=O)CN(C)C(=O)[C@H](Cc2ccc(C)cc2)N2CC/C=C\C[C@@H](C2=O)N(C)C(=O)CN(C2CC2)C1=O [PP2626] | A (a compound having 10 or more and less than 20 is denoted as A) | A (a compound having 10 or more and less than 20 is denoted as A) |
